We go through five molecules from PMC12394895, “Detection and characterisation of ligand-induced conformational changes in acetylcholine binding proteins using biosensors and X-ray crystallography” (RSC Chemical Biology, 2025).

For experiment [1], the target named is T1, Ls-AChBP (Lymnaea stagnalis, UniProt P58154).
T1 construct: soluble homopentamer, AChBP pentamer 125 kDa; amine-coupled for SAW and GCI
Put plainly: GCI biosensor, steady state. The experiment is classed as binding.

The target of experiment [2] is T1, Ls-AChBP. Put plainly: SAW biosensor, phase signal. The class given is binding. Conditions: pH 7.4, 25 °C, 5% DMSO; immobilised protein; unreliable (very rough approximation, steady state not always reached). An excerpt:
SAW biosensor, phase signal on Ls-AChBP

T1 sequence (P58154 20-229): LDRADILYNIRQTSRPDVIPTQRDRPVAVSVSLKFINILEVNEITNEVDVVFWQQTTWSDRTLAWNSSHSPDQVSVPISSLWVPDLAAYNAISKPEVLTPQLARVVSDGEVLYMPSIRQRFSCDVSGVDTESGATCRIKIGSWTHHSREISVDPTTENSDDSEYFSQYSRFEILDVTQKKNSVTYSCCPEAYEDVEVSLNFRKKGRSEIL

As to `Cn1ccnc1/C=C/c1ccc(O)c(O)c1` [VUF22430], the affinity at Ls-AChBP [1], expressed as Kd, was 1300 nM.
For the molecule `CCn1ccnc1-c1cccc(-c2ccccn2)n1` [VUF24234], binding on Ls-AChBP [1] was characterised by a dissociation constant (Kd) of 5000 nM.
For the molecule `CC(=O)OCC[N+](C)(C)C` [acetylcholine], the “Phase KD” value at Ls-AChBP [2] worked out at 610 nM.
In the case of `CN1CCC[C@H]1c1cccnc1` [nicotine], the “Phase KD” value on Ls-AChBP [2] is 35 nM.
For the molecule VUF6105, the “Phase KD” value on Ls-AChBP [2] was found to be 12000 nM.
